The target of this experiment is T1, MC4R (Homo sapiens, UniProt P32245).
T1 construct: expressed in transfected cells; host or cells: HEK (Human Embryonic Kidney) permanent expression cell line HEK MC4R-Luc, co-expressing CRE-luciferase
Put plainly: MCR agonistic activity (luciferase assay / cAMP accumulation assay) on MC4R. Format: cell-based. As to conditions: HEK cell lines expressing MC4R, not said which. The procedure:
Physiological activity of the compounds of the present invention was assessed by measuring agonistic activity as well as binding activity for melanocortin receptors (MCR) according to methods A and B explained as follows.
As one of the methods to measure MCR agonistic activity of the compound according to the present invention, the expression level of a marker gene (for example, luciferase) which increases proportionally according to the increase of cAMP content in the cell, was measured.
First, permanent expression HEK (Human Embryonic Kidney) cell lines (HEK MC1R-Luc, MC3R-Luc, MC4R-Luc or MC5R-Luc) expressing the MCR gene of each subtype together with luciferase gene (CRE-LUC) under the control of CRE (cAMP Response Element) were constructed. The above cell lines were incubated in an incubator with 6% CO2 atmosphere at 37° C. using selection medium, DMEM(Dulbecco's Modified Eagles Medium) containing 10% heat-inactivated fetal bovine serum (Gibco/BRL), 100 unit/ml, penicillin (Gibco/BRL), 100 unit/ml streptomycin (Gibco/BRL), and 200 μg/ml geneticin (G418) (Gibco/BRL). When the cell covered 70% of total surface of the culture dish with 100 mm diameter, the culture dish was rinsed one time with 10 ml Phosphate Buffered Saline(PBS) free of Ca^++ and Mg^++, and then 3 ml PBS solution containing 0.05% trypsin and 0.53 mM EDTA was added thereto. After the trypsin/EDTA solution was removed, the cell lines were incubated in an thermostatic incubator for 1 minute at 37° C., and resuspended in 10 ml selection medium and centrifuged for 5 minutes at 1500 rpm. The supernatant was discarded and the settled cells were resuspended in 5 ml selection medium free of Phenol Red. The resulting cell-suspension was plated onto each well of 96-well culture plates for Luminometer(Costar) with a concentration of 5×10^4 cell in 100 μl culture medium for each well and incubated in the incubator with 6% CO2 atmosphere at 37° C. for 18 hours. With MCR agonists (Example compounds) diluted stepwise using the above culture medium, the cells were treated under the condition of the final DMSO concentration not exceeding 1%, and incubated for 5 hours in the atmosphere of 6% CO2 at 37° C. Then, 50 μl Bright-Glo (Promega) was added to each well. After allowing the treated cells to be at room temperature for 15 minutes, luminescence was measured for each well by using luminometer (Victor). The level of luminescence induced by the stepwise-diluted agonist was converted to relative % value to those by the treatment of 10 nM NDP-MSH. The EC50 indicates the concentration of each agonist for inducing 50% of maximal luminescence by each agonist and this value was measured by a statistical software (Prizm).
B. cAMP Accumulation Assay
As another method to measure MCR agonistic activity of the compound according to the present invention, an increase of cAMP amount in the cell was measured.
First, permanent expression HEK (Human Embryonic Kidney) cell lines (HEK MC1R-Luc, MC3R-Luc, MC4R-Luc or MCSR-Luc) expressing the MCR gene of each subtype were plated onto each well of 24-well culture plates for Luminometer(Costar) with a concentration of 2×10^5 cell in 1 ml culture medium for each well, and then incubated in an incubator with 6% CO2 atmosphere at 37° C. for 24 hours. The medium was removed from each well followed by rinsing with 0.5 ml cold DMEM one time. With MCR agonists (Example compounds) diluted stepwise using 200 μl DMEM including 500 μM IBMX (isobutylmethylxanthine), the cells were treated under the condition of the final DMSO concentration not exceeding 1%, and incubated for 30 minutes in the atmosphere of 6% CO2 at 37° C. Then, the cAMP amount in each cell was measured using Amersham cAMP assay Kit (TRK432).
More specifically, 14.4 μl of 6M PCA (60%) was added to each well, and allowed to be in ice for 10 minutes, and 200 μl sample was taken from each well and transferred to microcentrifuge tube. […]

[1] abbreviates: method A (CRE-luciferase) or B (cAMP accumulation), read-out: EC50 value, agonistic activity to MC4R (range per group of Examples).
The mark [2] stands for this setting: specific activities of representative compounds, method A or B, read-out: EC50.

Read-outs that look alike come from different tables or passages of the source.

T1 sequence (P32245 whole entry, species assumed): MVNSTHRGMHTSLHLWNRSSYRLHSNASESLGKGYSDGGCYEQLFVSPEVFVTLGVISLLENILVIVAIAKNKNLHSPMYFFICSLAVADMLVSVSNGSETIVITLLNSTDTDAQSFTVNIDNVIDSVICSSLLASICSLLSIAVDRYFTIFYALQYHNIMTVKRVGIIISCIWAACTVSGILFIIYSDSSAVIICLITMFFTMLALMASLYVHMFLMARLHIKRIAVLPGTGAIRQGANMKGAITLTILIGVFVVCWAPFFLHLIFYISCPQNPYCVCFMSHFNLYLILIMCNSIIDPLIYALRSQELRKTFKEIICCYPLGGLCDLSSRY

Regarding `CN1CCN(C(=O)[C@@H]2C[C@H](N(C(=O)[C@@H]3CCCO3)C3CCC(C)(C)CC3)CN2C(=O)[C@@H]2CN(C(C)(C)C)C[C@H]2c2ccc(Cl)cc2)CC1` [Example 3, (2S)-N-{(3S,5S)-1-{[(3S,4R)-1-tert-butyl-4-(4-chlorophenyl)pyrrolidin-3-yl]carbonyl}-5-[(4-methylpiperazin-1-yl)carbonyl]pyrrolidin-3-yl}-N-(4,4-dimethylcyclohexyl)tetrahydrofuran-2-carboxamide], the EC50 by setting is: under setting [1], 0.1 to 10 nM; under setting [2], 3 nM.

As to `CC(=O)N([C@H]1C[C@H](C(=O)N2CCN(C)CC2)N(C(=O)[C@@H]2CN(C(C)C)C[C@H]2c2ccc(Cl)cc2)C1)[C@H]1CC[C@@H](C)CC1` [Example 62, N-{(3S,5R)-1-{[(3S,4R)-4-(4-chlorophenyl)-1-isopropylpyrrolidin-3-yl]carbonyl}-5-[(4-methylpiperazin-1-yl)carbonyl]pyrrolidin-3-yl}-N-(cis-4-methylcyclohexyl)acetamide], the EC50 under setting [1] was 10 to 100 nM.

Turning to `CN1CCN(C(=O)[C@@H]2C[C@H](N(C(=O)[C@@H]3CCCO3)C3CCC(C)(C)CC3)CN2C(=O)[C@@H]2CN(c3ccccn3)C[C@H]2c2ccc(Cl)cc2)CC1` [Example 65, (2S)-N-{(3S,5S)-1-{[(3S,4R)-4-(4-chlorophenyl)-1-pyridine-2-ylpyrrolidin-3-yl]carbonyl}-5-[(4-methylpiperazin-1-yl)carbonyl]pyrrolidin-3-yl}-N-(4,4-dimethylcyclohexyl)tetrahydrofuran-2-carboxamide], under setting [1], the EC50 was 0.1 to 10 nM.

Turning to `CN1CCN(C(=O)[C@@H]2C[C@H](N(C(=O)C(C)(C)CO)C3CCC(C)(C)CC3)CN2C(=O)[C@@H]2CN(C3CCOCC3)C[C@H]2c2ccc(Cl)cc2)CC1` [Example 49, N-{(3S,5S)-1-{[(3S,4R)-4-(4-chlorophenyl)-1-(tetrahydro-2H-pyran-4-yl)pyrrolidin-3-yl]carbonyl}-5-[(4-methylpiperazin-1-yl)carbonyl]pyrrolidin-3-yl}-N-(4,4-dimethylcyclohexyl)-3-hydroxy-2,2-dimethylpropanamide], the EC50 under setting [1] lay within 0.1 to 10 nM.

For `CN1CCN(C(=O)[C@@H]2C[C@H](N(C(=O)C(C)(C)C)C3CCC(F)(F)CC3)CN2C(=O)[C@@H]2CN(C(C)(C)C)C[C@H]2c2ccc(Cl)cc2)CC1` [Example 26, N-{(3S,5S)-1-{[(3S,4R)-1-tert-butyl-4-(4-chlorophenyl)pyrrolidine-3-yl]carbonyl}-5-[(4-methylpiperazin-1-yl)carbonyl]pyrrolidin-3-yl}-N-(4,4-difluorocyclohexyl)-2,2-dimethylpropanamide], the EC50 under setting [1] was in the range of 0.1 to 10 nM and the EC50 under setting [2] worked out at 6 nM.

As for `CC(=O)N([C@H]1C[C@H](C(=O)N2CCN(C)CC2)N(C(=O)[C@@H]2CN(C(C)(C)C)C[C@H]2c2ccc(F)cc2F)C1)[C@H]1CC[C@@H](C)CC1` [Example 38, N-{(3S,5R)-1-{[(3S,4R)-1-tert-butyl-4-(2,4-difluorophenyl)pyrrolidin-3-yl]carbonyl}-5-[(4-methylpiperazin-1-yl)carbonyl]pyrrolidin-3-yl}-N-(cis-4-methylcyclohexyl)acetamide], the EC50 under setting [1] was 0.1 to 10 nM.

Take `CC(=O)N(C1CCC(C)CC1)[C@H]1C[C@H](C(=O)N2CCN(C)CC2)N(C(=O)[C@@H]2CN(C3CCOCC3)C[C@H]2c2ccc(Cl)cc2)C1` (stereo partly drawn) [Example 54, N-{(3S,5R)-1-{[(3S,4R)-4-(4-chlorophenyl)-1-(tetrahydro-2H-pyran-4-yl)pyrrolidin-3-yl]carbonyl}-5-[(4-methylpiperazin-1-yl)carbonyl]pyrrolidin-3-yl}-N-(4-methylcyclohexyl)acetamide]: the EC50 under setting [1] was in the range of 0.1 to 10 nM.

As to `CN1CCN(C(=O)[C@H]2C[C@H](N(C(=O)[C@@H]3CCCO3)C3CCC(C)(C)CC3)CN2C(=O)[C@@H]2CN(C(C)(C)C)C[C@H]2c2ccc(F)cc2F)CC1` [Example 32, (2S)-N-{(3S,5R)-1-{[(3S,4R)-1-tert-butyl-4-(2,4-difluorophenyl)pyrrolidin-3-yl]carbonyl}-5-[(4-methylpiperazin-1-yl)carbonyl]pyrrolidin-3-yl}-N-(4,4-dimethylcyclohexyl)tetrahydrofuran-2-carboxamide], the EC50 under setting [1] lay within 0.1 to 10 nM and the EC50 under setting [2] turned out to be 4 nM.

In the case of `CN1CCN(C(=O)[C@H]2C[C@H](N(C(=O)C(C)(C)C)[C@H]3CC[C@@H](C)CC3)CN2C(=O)[C@@H]2CN(C(C)(C)C)C[C@H]2c2ccc(F)cc2F)CC1` [Example 33, N-{(3S,5R)-1-{[(3S,4R)-1-tert-butyl-4-(2,4-difluorophenyl)pyrrolidin-3-yl]carbonyl}-5-[(4-methylpiperazin-1-yl)carbonyl]pyrrolidin-3-yl}-2,2-dimethyl-N-(cis-4-methylcyclohexyl)propanamide], under setting [1], the EC50 was 10 to 100 nM.

Regarding `CN1CCN(C(=O)[C@@H]2C[C@H](N(C(=O)C(C)(C)C)c3ccc(F)cc3F)CN2C(=O)[C@@H]2CN(C(C)(C)C)C[C@H]2c2ccc(Cl)cc2)CC1` [Example 80, N-{(3S,5S)-1-{[(3S,4R)-1-tert-butyl-4-(4-chlorophenyl)pyrrolidin-3-yl]carbonyl}-5-[(4-methylpiperazin-1-yl)carbonyl]pyrrolidin-3-yl}-N-(2,4-difluorophenyl)-2,2-dimethylpropanamide], the half-maximal effective concentration (EC50) under setting [1] fell in the range of 0.1 to 10 nM.

Consider `CC(=O)N(C1CCC(C)(C)CC1)[C@H]1C[C@@H](C(=O)N2CCN(C(C)C)CC2)N(C(=O)[C@@H]2CN(C(C)(C)C)C[C@H]2c2ccc(F)cc2F)C1` [Example 7, N-{(3S,5S)-1-{[(3S,4R)-1-tert-butyl-4-(2,4-difluorophenyl)pyrrolidin-3-yl]carbonyl}-5-[(4-isopropylpiperazin-1-yl)carbonyl]pyrrolidin-3-yl}-N-(4,4-dimethylcyclohexyl)acetamide], for which, under setting [1], the EC50 lay within 10 to 100 nM.

Take `CN1CCN(C(=O)[C@@H]2C[C@H](N(C(=O)[C@@H]3CCCO3)[C@H]3CC[C@@H](C)CC3)CN2C(=O)[C@@H]2CN(C(C)(C)C)C[C@H]2c2ccc(Cl)cc2)CC1` [Example 16, (2S)-N-{(3S,5S)-1-{[(3S,4R)-1-tert-butyl-4-(4-chlorophenyl)pyrrolidin-3-yl]carbonyl}-5-[(4-methylpiperazin-1-yl)carbonyl]pyrrolidin-3-yl}-N-(cis-4-methylcyclohexyl)tetrahydrofuran-2-carboxamide]: the concentration giving a half-maximal response (EC50) under setting [1] was 0.1 to 10 nM and the EC50 under setting [2] is 0.4 nM.

Turning to `CN1CCN(C(=O)[C@@H]2C[C@H](N(C(=O)[C@@H]3CCCO3)[C@H]3CC[C@@H](C)CC3)CN2C(=O)[C@@H]2CN(C(C)(C)C)C[C@@H]2c2ccc(Cl)cc2)CC1` [Example 75, (2S)-N-{(3S,5S)-1-{[(3S,4S)-1-tert-butyl-4-(4-chlorophenyl)pyrrolidin-3-yl]carbonyl}-5-[(4-methylpiperazin-1-yl)carbonyl]pyrrolidin-3-yl}-N-(cis-4-methylcyclohexyl)tetrahydrofuran-2-carboxamide], the EC50 under setting [1] lay within 1000 to 10000 nM.

As for `CN1CCN(C(=O)[C@@H]2C[C@H](N(C(=O)C(C)(C)C)C3CCC(F)(F)CC3)CN2C(=O)[C@@H]2CN(C3CCOCC3)C[C@H]2c2ccc(Cl)cc2)CC1` [Example 50, N-{(3S,5S)-1-{[(3S,4R)-4-(4-chlorophenyl)-1-(tetrahydro-2H-pyran-4-yl)pyrrolidin-3-yl]carbonyl}-5-[(4-methylpiperazin-1-yl)carbonyl]pyrrolidin-3-yl}-N-(4,4-difluorocyclohexyl)-2,2-dimethylpropanamide], the 50% effective concentration (EC50) under setting [1] lay within 0.1 to 10 nM.

The values above are taken from patent US8183243B2, “Melanocortin receptor agonists” (LG Life Sciences Ltd., priority 2008, dated 2012).
